The source of these data is ChEMBL document CHEMBL1155971, “Discovery of a novel class of isoxazoline voltage gated sodium channel blockers” (Bioorg Med Chem Lett, 2009).

Data set [1] addresses T1, Sodium channel protein type 9 subunit alpha (Homo sapiens, UniProt Q15858). Briefly: Inhibition of human Nav1.7 channel expressed in HEK cells at 1 uM by FRET assay. The settings on record: HEK293. The format is cell-based.
Target sequence in this assay (Q15858 whole entry, looked up): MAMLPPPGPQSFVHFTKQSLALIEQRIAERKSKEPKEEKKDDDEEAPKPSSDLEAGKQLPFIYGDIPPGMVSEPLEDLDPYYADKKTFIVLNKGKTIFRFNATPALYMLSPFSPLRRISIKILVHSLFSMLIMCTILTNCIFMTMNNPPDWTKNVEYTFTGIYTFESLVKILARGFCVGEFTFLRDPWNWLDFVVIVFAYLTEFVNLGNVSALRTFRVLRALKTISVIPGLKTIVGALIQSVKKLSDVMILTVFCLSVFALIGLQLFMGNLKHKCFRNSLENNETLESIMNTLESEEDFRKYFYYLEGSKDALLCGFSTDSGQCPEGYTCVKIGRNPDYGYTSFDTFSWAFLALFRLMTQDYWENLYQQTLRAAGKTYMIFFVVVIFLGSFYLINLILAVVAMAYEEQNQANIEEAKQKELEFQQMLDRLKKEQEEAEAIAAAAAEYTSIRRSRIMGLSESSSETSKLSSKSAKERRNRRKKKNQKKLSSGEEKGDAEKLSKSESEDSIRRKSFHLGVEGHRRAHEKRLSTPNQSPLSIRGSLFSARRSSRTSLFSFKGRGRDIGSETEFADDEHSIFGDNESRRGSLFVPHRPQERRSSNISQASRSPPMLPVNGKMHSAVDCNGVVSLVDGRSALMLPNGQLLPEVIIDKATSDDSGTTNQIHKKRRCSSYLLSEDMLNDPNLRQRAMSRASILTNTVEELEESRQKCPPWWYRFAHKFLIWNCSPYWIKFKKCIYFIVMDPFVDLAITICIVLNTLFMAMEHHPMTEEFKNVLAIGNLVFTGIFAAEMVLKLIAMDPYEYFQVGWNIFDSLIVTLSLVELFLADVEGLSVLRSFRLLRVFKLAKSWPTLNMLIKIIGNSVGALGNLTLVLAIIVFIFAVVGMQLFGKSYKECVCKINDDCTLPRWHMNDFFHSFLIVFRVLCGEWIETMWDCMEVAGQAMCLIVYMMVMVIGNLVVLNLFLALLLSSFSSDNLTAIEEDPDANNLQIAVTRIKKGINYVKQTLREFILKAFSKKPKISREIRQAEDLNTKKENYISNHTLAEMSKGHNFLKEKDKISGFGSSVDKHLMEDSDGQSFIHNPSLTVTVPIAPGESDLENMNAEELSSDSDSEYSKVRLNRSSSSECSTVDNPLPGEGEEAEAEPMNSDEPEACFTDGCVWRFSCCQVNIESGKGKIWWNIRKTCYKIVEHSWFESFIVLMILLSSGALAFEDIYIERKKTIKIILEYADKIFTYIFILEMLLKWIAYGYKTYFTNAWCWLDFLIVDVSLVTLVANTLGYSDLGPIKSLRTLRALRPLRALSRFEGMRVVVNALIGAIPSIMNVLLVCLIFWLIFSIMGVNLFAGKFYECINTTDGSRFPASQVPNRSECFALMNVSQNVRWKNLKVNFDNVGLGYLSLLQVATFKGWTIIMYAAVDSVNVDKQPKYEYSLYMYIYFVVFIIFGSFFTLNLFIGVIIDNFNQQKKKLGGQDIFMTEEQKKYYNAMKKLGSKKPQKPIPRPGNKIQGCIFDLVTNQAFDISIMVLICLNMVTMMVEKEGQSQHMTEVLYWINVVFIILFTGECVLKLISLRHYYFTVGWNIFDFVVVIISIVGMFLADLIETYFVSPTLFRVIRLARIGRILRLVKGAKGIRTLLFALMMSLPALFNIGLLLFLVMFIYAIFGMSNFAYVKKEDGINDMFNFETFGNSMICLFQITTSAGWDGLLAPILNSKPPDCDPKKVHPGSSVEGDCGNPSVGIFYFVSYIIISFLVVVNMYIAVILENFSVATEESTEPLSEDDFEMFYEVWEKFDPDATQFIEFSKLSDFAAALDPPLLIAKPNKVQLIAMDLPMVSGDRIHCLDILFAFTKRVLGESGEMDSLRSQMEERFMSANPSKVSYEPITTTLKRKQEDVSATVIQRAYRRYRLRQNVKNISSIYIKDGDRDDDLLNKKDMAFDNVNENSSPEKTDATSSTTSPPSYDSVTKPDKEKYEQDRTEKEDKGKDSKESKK
Data set [2] concerns the target T1, Sodium channel protein type 9 subunit alpha. Briefly: Inhibition of human Nav1.7 channel expressed in HEK cells by FRET assay. The format is cell-based, HEK293.
Target sequence in this assay (Q15858 whole entry): as the sequence (Q15858 whole entry, looked up) above
The test system of data set [3] is Rattus norvegicus. Briefly: Analgesic activity in Freund's complete adjuvant-induced rat pain model assessed as reversal of mechanic allodynia at 3 mg/kg, po after 3 hrs. The data set is classed as functional.
The nature of data set [4]: Bioavailability in Sprague-Dawley rat. The data set is classed as ADME, organism-based. The settings on record: in vivo.
A short description of data set [5]: Plasma clearance in Sprague-Dawley rat. The format is ADME, organism-based.
A short description of data set [6]: Half life in Sprague-Dawley rat. The format is ADME, organism-based. The settings on record: in vivo.
Data set [7] relates to Rattus norvegicus. Briefly: Analgesic activity in Freund's complete adjuvant-induced rat pain model assessed as reversal of mechanic allodynia at 3 mg/kg, po after 2 hrs. The format is functional.
The subject of data set [8] is Rattus norvegicus. Briefly: Analgesic activity in spinal nerve ligation-induced rat neuropathic pain model assessed as reversal of allodynia at 10 mg/kg, po after 3 hrs. The data set is classed as functional.
Data set [9] concerns Rattus norvegicus. Briefly: Analgesic activity in Freund's complete adjuvant-induced rat pain model assessed as reversal of mechanic allodynia at 10 mg/kg, po after 3 hrs. The format is functional.

Each structure is given as a SMILES string.

As to `O=C(NCc1ccc(OC(F)(F)F)cc1)[C@@H]1CCC[C@H]1c1ncc(-c2ccccc2)o1` (racemic), the inhibition (in general, the change of the read-out against control, counted positive when it falls) in [1] was 0%.

As to `CC1(c2ccccc2)CC([C@@H]2CCC[C@H]2C(=O)Nc2ccc3ncccc3c2)=NO1` (mixture of isomers), in [1], the inhibition worked out at 17%.

As for `COC(=O)c1cccc(C2CC([C@@H]3CCC[C@H]3C(=O)NCc3ccc(OC(F)(F)F)cc3)=NO2)c1` (mixture of isomers), the IC50 (in general, the point on the concentration scale where inhibition reaches its midpoint) in data set [2] is 710 nM. In data set [1], this molecule showed an inhibition of 75%.

As to `CC1(c2ccccc2)CC([C@@H]2CCC[C@H]2C(=O)NCc2ccc(OC(F)(F)F)cc2)=NO1` (mixture of isomers) [listing 1 of 2 here], the Activity in the data set on Rattus norvegicus [3] (3 mg/kg) stood at 48%; in the data set on Rattus norvegicus [7] it was 20%. The bioavailability (as a rule, dose-corrected exposure relative to a reference, in per cent) in data set [4] came out at 16%. The clearance (usually a measure of how efficiently the substance is removed, as volume per time) in data set [5] was 17.8 mL/min/kg. Further, in data set [2], the midpoint of inhibition, the IC50, lay at 620 nM. Besides, the half-life (commonly the time needed for the level to fall by half in the phase considered) in [6] is 2.9 h.

On to `O=C(NCc1ccc(OC(F)(F)F)cc1)[C@@H]1CCC[C@H]1C1=NOC(c2ccccn2)C1` (mixture of isomers), for which the inhibition in data set [1] was 0%.

`CC1(c2ccccc2)CC([C@@H]2CCC[C@H]2C(=O)NCc2ccc(-c3ccccc3S(C)(=O)=O)cc2)=NO1` (mixture of isomers) gave an inhibition in data set [1] of 0%.

As for `O=C(NCc1ccc(OC(F)(F)F)cc1)[C@@H]1CCC[C@H]1c1cc(-c2ccc(Cl)cc2)on1` (racemic), in [1], the inhibition was found to be 33%.

Regarding `CC1(c2ccccc2)CC([C@@H]2CCC[C@H]2C(=O)NCc2ccc(OC(F)(F)F)cc2)=NO1` (single isomer, unassigned; diastereomer a) [listing 1 of 2 here], the Activity with Rattus norvegicus [3] (3 mg/kg) worked out at 53%; in the data set on Rattus norvegicus [8] it was 21%. For the same molecule, in [2], half-maximal inhibition (IC50) required 960 nM.

Consider `CS(=O)(=O)c1ccc(C2CC([C@@H]3CCC[C@H]3c3cc(-c4ccccc4)on3)=NO2)cc1` (mixture of isomers), for which the inhibition in [1] is 43%.

In turn, `O=C(NCc1ccc(OC(F)(F)F)cc1)[C@@H]1CCC[C@H]1c1cc(-c2ccccc2)on1` (racemic) had an inhibition in [1] of 38%.

Molecule `O=C(NCc1ccc(OC(F)(F)F)cc1)[C@@H]1CCC[C@H]1C1=NC(c2ccc(Cl)cc2)CO1` (mixture of isomers) gave an IC50 in [2] of 970 nM. This molecule had an inhibition in data set [1] of 56%.

With `COC(=O)c1ccc(C2CC([C@@H]3CCC[C@H]3C(=O)NCc3ccc(OC(F)(F)F)cc3)=NO2)cc1` (mixture of isomers), the IC50 in data set [2] was found to be 340 nM. In data set [1], this molecule returned an inhibition of 87%.

In the case of `CC1(c2ccccc2)CC([C@@H]2CCC[C@H]2C(=O)NCc2ccc(OC(F)(F)F)cc2)=NO1` (single isomer, unassigned; diastereomer c) [listing 1 of 2 here], in the data set with Rattus norvegicus [3] (3 mg/kg), the Activity is given as 20%. This molecule also came in with an IC50 in data set [2] of 1200 nM.

Consider `O=C(NCc1ccc(OC(F)(F)F)cc1)[C@@H]1CCC[C@H]1C1=NOC(c2cccc(Cl)c2)C1` (mixture of isomers), for which the midpoint of inhibition in data set [2], the IC50, lay at 480 nM. The inhibition in [1] worked out at 90%.

`NC(=O)c1ccc(C2CC([C@@H]3CCC[C@H]3C(=O)NCc3ccc(OC(F)(F)F)cc3)=NO2)cc1` (mixture of isomers) had an inhibition in data set [1] of 0%.

Turning to `O=C(NCc1ccc(OC(F)(F)F)cc1)[C@@H]1CCC[C@H]1C1=NCC(c2ccccc2)O1` (mixture of isomers), inhibition in data set [2] was half-maximal at 620 nM (IC50). Besides, the inhibition in data set [1] amounted to 71%.

In data set [1], `CC1(c2ccccc2)CC([C@@H]2CCC[C@H]2C(=O)NCc2ccccc2)=NO1` (mixture of isomers) had an inhibition of 19%.

In the case of `CC1(c2ccccc2)CC([C@@H]2CCC[C@H]2C(=O)NCc2ccc(OC(F)(F)F)cc2)=NO1` (single isomer, unassigned; diastereomer a) [listing 2 of 2 here], the inhibition in data set [1] turned out to be 64%.

`FC(F)(F)Oc1ccc(C2CC([C@@H]3CCC[C@H]3c3cc(-c4ccccc4)on3)=NO2)cc1` (mixture of isomers) came in with an inhibition in [1] of 18%.

In turn, `CC(C)Oc1ccc(CNC(=O)[C@@H]2CCC[C@H]2C2=NOC(C)(c3ccccc3)C2)cc1` (mixture of isomers) gave an IC50 in [2] of 1500 nM. This counts as single-digit micromolar.

In [1], `O=C(NCc1ccc(OC(F)(F)F)cc1)[C@@H]1CCC[C@H]1c1nc(-c2ccccc2)co1` (racemic) yielded an inhibition of 19%.

In data set [1], `CC1(c2ccccc2)CC([C@@H]2CCC[C@H]2C(=O)NCc2ccc(OC(F)(F)F)cc2)=NO1` (relative stereo) [listing 1 of 2 here] registered an inhibition of 35%.

Molecule `CN(Cc1ccc(-c2ccccc2S(C)(=O)=O)cc1)C(=O)[C@@H]1CCC[C@H]1C1=NOC(C)(c2ccccc2)C1` (mixture of isomers) showed an inhibition in data set [1] of 0%.

Molecule `COc1ccc(CNC(=O)[C@@H]2CCC[C@H]2C2=NOC(C)(c3ccccc3)C2)cc1` (relative stereo) gave an inhibition in data set [1] of 16%.

Turning to `CC1(c2ccccc2)CC([C@@H]2CCC[C@H]2C(=O)Nc2ccc(OC(F)(F)F)cc2)=NO1` (mixture of isomers), the inhibition in data set [1] is 30%.

On to `CC1(c2ccccc2)CC([C@@H]2CCC[C@H]2C(=O)NCc2ccc(OC(F)(F)F)cc2)=NO1` (relative stereo) [listing 2 of 2 here], for which the Activity with Rattus norvegicus [3] (3 mg/kg) is 31%.

On to `CC1(c2ccccc2)CC([C@@H]2CCC[C@H]2C(=O)NCc2ccc(Cl)cc2)=NO1` (mixture of isomers), for which the inhibition in data set [1] is 15%.

`CC1(c2ccccc2)CC([C@@H]2CCC[C@H]2C(=O)NCc2ccc(OC(F)(F)F)cc2S(C)(=O)=O)=NO1` (mixture of isomers) registered an inhibition in data set [1] of 13%.

In data set [2], `CC1(c2ccccc2)CC([C@@H]2CCC[C@H]2C(=O)NCc2ccc(C(F)(F)F)cc2)=NO1` (mixture of isomers) yielded an IC50 of 2500 nM.

Consider `O=C(NCc1ccc(OC(F)(F)F)cc1)[C@@H]1CCC[C@H]1C1=NOC(CO)(c2ccccc2)C1` (mixture of isomers), for which the inhibition in [1] was found to be 23%.

Consider `O=C(NCc1ccc(OC(F)(F)F)cc1)[C@@H]1CCC[C@H]1C1=NOC(c2ccc(Cl)cc2)C1` (mixture of isomers), for which, in data set [2], the IC50 amounted to 430 nM. In [1], the inhibition was found to be 92%.

On to `CNC(=O)c1ccc(C2CC([C@@H]3CCC[C@H]3C(=O)NCc3ccc(OC(F)(F)F)cc3)=NO2)cc1` (mixture of isomers), for which the inhibition in data set [1] amounted to 14%.

In the case of `CC1(c2ccccc2)CC([C@@H]2CCC[C@H]2C(=O)NCc2ccc(OC(F)(F)F)cc2)=NO1` (mixture of isomers) [listing 2 of 2 here], the inhibition in [1] was 63%.

In the case of `O=C(O)c1ccc(C2CC([C@@H]3CCC[C@H]3C(=O)NCc3ccc(OC(F)(F)F)cc3)=NO2)cc1` (mixture of isomers), the inhibition in data set [1] stood at 0%.

As to `CN(Cc1ccc(-c2ccccc2S(N)(=O)=O)cc1)C(=O)[C@@H]1CCC[C@H]1C(=O)NCc1ccc(OC(F)(F)F)cc1` (relative stereo), the Activity is given as 31% in the data set with Rattus norvegicus [3], 54% in the data set on Rattus norvegicus [9] and 35% in the data set with Rattus norvegicus [8]. The IC50 in [2] stood at 830 nM.

`Clc1cc(Cl)cc(C2CC([C@@H]3CCC[C@H]3c3cc(-c4ccccc4)on3)=NO2)c1` (mixture of isomers) registered an inhibition in [1] of 35%.

Turning to `O=C(NCc1ccc(OC(F)(F)F)cc1)[C@@H]1CCC[C@H]1C1=NOC(c2ccccc2)C1` (mixture of isomers), in data set [2], half-maximal inhibition (IC50) was put at 780 nM. The same molecule had an inhibition in data set [1] of 76%.

Molecule `CC(C)(C)Oc1ccc(CNC(=O)[C@@H]2CCC[C@H]2C2=NOC(C)(c3ccccc3)C2)cc1` (mixture of isomers) came in with an inhibition in data set [1] of 26%.

In [1], `CC1(c2ccccc2)CC([C@@H]2CCC[C@H]2C(=O)NCc2ccc(OC(F)(F)F)cc2)=NO1` (single isomer, unassigned; diastereomer b) [listing 1 of 2 here] had an inhibition of 37%.

As to `c1ccc(-c2cc([C@@H]3CCC[C@H]3C3=NOC(c4ccccc4)C3)no2)cc1` (mixture of isomers), the inhibition in data set [1] was 13%.

`CC1(c2ccccc2)CC([C@@H]2CCC[C@H]2C(=O)NCc2ccc(OC(F)(F)F)cc2)=NO1` (single isomer, unassigned; diastereomer c) [listing 2 of 2 here] displayed an inhibition in data set [1] of 48%.

`CS(=O)(=O)c1ccc(C2CC([C@@H]3CCC[C@H]3C(=O)NCc3ccc(OC(F)(F)F)cc3)=NO2)cc1` (mixture of isomers) displayed an inhibition in data set [1] of 26%.

As for `CC1(c2ccccc2)CC([C@@H]2CCC[C@H]2C(=O)NCc2ccc(OC(F)(F)F)cc2)=NO1` (single isomer, unassigned; diastereomer b) [listing 2 of 2 here], the Activity with Rattus norvegicus [3] (3 mg/kg) is given as 26%.

On to `O=C(NCc1ccc(OC(F)(F)F)cc1)[C@@H]1CCC[C@H]1C1=NOC(c2ccc(OC(F)(F)F)cc2)C1` (mixture of isomers), for which it took 500 nM to reach half-maximal inhibition in data set [2] (IC50). This molecule had an inhibition in data set [1] of 93%.
